Results as given in ChEMBL document CHEMBL1201862, “PubChem BioAssay data set” (2004).
Blank lines part the entries; values can stand above or below the compound they belong to. Activity calls are given as the source filed them.

Experiments:
Steroidogenic factor 1 = Steroidogenic factor 1 (Homo sapiens, UniProt Q13285); assay: Counterscreen for inverse agonists of the liver receptor homolog-1 (LRH-1; NR5A2): Luminescence-based cell-based high throughput dose response assay to identify inverse agonists of the Steroidogenic Factor 1 Nuclear Receptor (SF1; NR5A1).; assay type: functional
[1] = StAR promoter reporter inhibition counter-screen, dose response, counter-screen for LRH-1 inverse agonist project, cell-based, luminescence, luciferase reporter (AID 651969); assay type: functional
[2] = target: Nuclear receptor subfamily 5 group A member 2 (Homo sapiens, UniProt O00482); assay type: functional, cell-based;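 note: HEK293T cells transfected with LRH-1 and a StAR promoter luciferase reporter; potency for inhibitors that lower LRH-1 driven reporter light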
[3] = target: T1, High affinity choline transporter 1 (Homo sapiens, UniProt Q9GZV3); assay: CHT inhibitors, dose response, cell-based, 5-point CRC, membrane potential dye (AID 504840); assay type: functional
T1 sequence (Q9GZV3 whole entry): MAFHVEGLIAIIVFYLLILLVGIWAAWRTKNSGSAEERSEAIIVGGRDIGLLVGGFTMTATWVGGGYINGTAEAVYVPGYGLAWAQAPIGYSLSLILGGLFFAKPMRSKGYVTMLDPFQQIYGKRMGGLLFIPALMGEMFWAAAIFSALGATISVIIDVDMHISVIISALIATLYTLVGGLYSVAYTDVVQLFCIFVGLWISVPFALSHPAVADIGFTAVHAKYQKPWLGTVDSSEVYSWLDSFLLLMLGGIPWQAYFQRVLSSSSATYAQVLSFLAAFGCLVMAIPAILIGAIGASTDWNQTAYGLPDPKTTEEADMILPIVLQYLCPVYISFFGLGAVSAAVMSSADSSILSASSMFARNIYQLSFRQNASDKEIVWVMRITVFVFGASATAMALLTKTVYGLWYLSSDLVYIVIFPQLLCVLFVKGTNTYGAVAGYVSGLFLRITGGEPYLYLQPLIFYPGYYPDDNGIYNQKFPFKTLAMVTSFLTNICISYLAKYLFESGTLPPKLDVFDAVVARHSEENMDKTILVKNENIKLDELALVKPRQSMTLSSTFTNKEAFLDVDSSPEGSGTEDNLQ

[4] = target: T1, High affinity choline transporter 1; assay: CHT inhibitors, dose response, cell-based, 10-point CRC, membrane potential dye (AID 588401); assay type: functional;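 note: membrane potential dye fluorescence of choline-evoked depolarization via CHT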
[5] = target: T2, Probable nicotinate-nucleotide adenylyltransferase (Staphylococcus aureus (strain N315), UniProt P65502); assay type: functional, Staphylococcus aureus subsp. aureus N315; details: read-out: IC50_Mean;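 for IC50 Mean: confirmatory dose-response retesting of NadD inhibitor hits first found in an ultra-high-throughput screen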
[6] = target: T2, Probable nicotinate-nucleotide adenylyltransferase; assay type: functional, Staphylococcus aureus subsp. aureus N315
[7] = HeLa cell cytotoxicity, dose response, cytotoxicity control for MgcRacGAP inhibitor project (AID 624300); assay type: functional
[8] = target: T3, Rac GTPase-activating protein 1 (Homo sapiens, UniProt Q9H0H5); assay: MgcRacGAP GTPase-activating activity inhibitors, confirmation, biochemical, ADP Hunter fluorescence, primary and confirmatory (AID 624330); assay type: functional
T3 sequence (Q9H0H5 whole entry): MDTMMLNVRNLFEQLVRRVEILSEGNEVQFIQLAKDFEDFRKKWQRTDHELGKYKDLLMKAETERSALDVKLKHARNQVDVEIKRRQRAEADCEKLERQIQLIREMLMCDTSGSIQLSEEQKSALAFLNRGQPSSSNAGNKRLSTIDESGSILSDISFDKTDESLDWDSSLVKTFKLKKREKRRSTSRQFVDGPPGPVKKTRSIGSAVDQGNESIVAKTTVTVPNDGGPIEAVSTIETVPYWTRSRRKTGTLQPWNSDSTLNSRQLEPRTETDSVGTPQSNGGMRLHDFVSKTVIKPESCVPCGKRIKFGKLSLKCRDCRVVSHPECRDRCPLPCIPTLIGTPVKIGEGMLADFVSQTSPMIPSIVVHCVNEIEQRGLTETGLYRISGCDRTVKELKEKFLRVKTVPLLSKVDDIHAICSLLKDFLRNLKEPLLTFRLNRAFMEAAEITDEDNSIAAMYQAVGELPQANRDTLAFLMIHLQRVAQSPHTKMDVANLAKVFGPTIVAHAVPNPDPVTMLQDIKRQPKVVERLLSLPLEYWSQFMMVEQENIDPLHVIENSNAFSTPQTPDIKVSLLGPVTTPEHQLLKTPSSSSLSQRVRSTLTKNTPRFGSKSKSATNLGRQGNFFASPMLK

[9] = tested on: Streptococcus sp. 'group A'; assay: growth inhibition of control SK(-) GAS strain, dose response, counter-screen for streptokinase expression inhibitor project, luminescence, kanamycin, BacTiterGlo, confirmation (AID 1900); assay type: functional, organism-based
Streptococcus = assay: Group A Streptococcus viability loss, dose response, counter-screen for streptokinase expression inhibitor project, luminescence, BacTiterGlo (AID 1915); assay type: functional, organism-based;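 note: potency for reduction of bacterial viability or growth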
Melanocortin receptor 4 = Melanocortin receptor 4 (Homo sapiens, UniProt P32245); assay type: functional, cell-based;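 note: Cell-based assay with luminescence read-out, confirmatory dose-response testing for agonist activity of biased ligands at MC4R; human U2OS cells with tagged receptor and beta-arrestin; potency of agonists that increase receptor coupling to beta-arrestin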
H9c2 = assay: cells; assay type: functional, cell-based; details: Rattus norvegicus, H9c2, Myocardium;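 note: confirmatory concentration-response retest of ultra-high-throughput screening hits for modulation of myocardial damage; cell death induced by hydrogen peroxide oxidative stress; compound pretreatment for 60 min then peroxide exposure for 2 h; potency is for protecting the cells against peroxide damage rather than for killing them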
[10] = target: T4, Sentrin-specific protease 8 (Homo sapiens, UniProt Q96LD8); assay: SENP8 protease inhibitors, SAR follow-up, biochemical, luminescence (AID 504501); assay type: functional
T4 sequence (Q96LD8 whole entry): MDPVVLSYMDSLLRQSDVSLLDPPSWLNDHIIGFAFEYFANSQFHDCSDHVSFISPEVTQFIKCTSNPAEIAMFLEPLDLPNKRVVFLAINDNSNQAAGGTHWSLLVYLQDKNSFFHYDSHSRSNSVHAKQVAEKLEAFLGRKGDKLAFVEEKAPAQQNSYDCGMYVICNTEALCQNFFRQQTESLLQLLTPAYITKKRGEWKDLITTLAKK

Caspase-3 = target: T5, Caspase-3 (Homo sapiens, UniProt P42574); assay: SAR Analysis of small molecule inhibitors of Sentrin-specific proteases (SENPs) using a Caspase-3 Selectivity assay. [Related pubchem assays (depositor defined):AID2540, AID2599, AID434973, AID489001]; assay type: functional
T5 sequence (P42574 whole entry): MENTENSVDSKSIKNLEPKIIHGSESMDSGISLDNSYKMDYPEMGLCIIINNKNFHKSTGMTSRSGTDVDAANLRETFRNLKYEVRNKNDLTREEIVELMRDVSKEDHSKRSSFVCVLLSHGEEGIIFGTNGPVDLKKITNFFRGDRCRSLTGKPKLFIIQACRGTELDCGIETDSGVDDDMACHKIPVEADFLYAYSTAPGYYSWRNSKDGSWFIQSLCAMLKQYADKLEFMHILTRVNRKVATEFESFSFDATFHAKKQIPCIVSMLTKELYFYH

[11] = target: T6, Sentrin-specific protease 7 (Homo sapiens, UniProt Q9BQF6); assay: SENP7 protease inhibitors, SAR follow-up, biochemical, luminescence (AID 504497); assay type: functional
T6 sequence (Q9BQF6 whole entry): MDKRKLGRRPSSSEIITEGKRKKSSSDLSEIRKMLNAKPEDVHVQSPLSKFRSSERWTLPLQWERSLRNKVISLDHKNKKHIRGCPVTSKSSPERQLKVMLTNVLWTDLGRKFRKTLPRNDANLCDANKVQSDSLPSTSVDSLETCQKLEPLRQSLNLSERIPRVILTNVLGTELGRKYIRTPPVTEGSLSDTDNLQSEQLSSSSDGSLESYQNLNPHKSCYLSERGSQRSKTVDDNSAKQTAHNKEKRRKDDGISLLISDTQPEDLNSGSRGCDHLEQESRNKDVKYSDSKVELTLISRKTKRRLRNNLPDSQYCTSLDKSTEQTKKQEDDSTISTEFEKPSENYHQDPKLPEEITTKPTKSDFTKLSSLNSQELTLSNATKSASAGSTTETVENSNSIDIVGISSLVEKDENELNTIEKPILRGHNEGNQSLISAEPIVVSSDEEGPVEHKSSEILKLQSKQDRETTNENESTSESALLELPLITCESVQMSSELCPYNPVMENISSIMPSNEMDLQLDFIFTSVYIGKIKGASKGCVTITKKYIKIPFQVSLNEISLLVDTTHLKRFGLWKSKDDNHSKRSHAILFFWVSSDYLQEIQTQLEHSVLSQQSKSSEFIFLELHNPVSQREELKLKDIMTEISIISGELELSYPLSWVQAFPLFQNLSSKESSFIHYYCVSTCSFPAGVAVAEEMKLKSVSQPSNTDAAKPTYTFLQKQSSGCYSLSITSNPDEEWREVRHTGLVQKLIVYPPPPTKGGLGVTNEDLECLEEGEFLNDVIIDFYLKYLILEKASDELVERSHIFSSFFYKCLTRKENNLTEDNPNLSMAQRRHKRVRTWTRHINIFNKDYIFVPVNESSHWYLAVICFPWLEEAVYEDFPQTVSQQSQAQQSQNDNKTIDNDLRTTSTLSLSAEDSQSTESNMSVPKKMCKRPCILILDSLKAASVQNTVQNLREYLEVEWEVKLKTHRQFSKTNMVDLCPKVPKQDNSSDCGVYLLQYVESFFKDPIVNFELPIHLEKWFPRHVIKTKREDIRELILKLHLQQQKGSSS

[12] = target: T7, Sentrin-specific protease 6 (Homo sapiens, UniProt Q9GZR1); assay: SAR Analysis of small molecule inhibitors of Sentrin-specific protease 6 (SENP6) using a Luminescent assay. [Related pubchem assays (depositor defined):AID2582, AID2599]; assay type: functional
T7 sequence (Q9GZR1 whole entry): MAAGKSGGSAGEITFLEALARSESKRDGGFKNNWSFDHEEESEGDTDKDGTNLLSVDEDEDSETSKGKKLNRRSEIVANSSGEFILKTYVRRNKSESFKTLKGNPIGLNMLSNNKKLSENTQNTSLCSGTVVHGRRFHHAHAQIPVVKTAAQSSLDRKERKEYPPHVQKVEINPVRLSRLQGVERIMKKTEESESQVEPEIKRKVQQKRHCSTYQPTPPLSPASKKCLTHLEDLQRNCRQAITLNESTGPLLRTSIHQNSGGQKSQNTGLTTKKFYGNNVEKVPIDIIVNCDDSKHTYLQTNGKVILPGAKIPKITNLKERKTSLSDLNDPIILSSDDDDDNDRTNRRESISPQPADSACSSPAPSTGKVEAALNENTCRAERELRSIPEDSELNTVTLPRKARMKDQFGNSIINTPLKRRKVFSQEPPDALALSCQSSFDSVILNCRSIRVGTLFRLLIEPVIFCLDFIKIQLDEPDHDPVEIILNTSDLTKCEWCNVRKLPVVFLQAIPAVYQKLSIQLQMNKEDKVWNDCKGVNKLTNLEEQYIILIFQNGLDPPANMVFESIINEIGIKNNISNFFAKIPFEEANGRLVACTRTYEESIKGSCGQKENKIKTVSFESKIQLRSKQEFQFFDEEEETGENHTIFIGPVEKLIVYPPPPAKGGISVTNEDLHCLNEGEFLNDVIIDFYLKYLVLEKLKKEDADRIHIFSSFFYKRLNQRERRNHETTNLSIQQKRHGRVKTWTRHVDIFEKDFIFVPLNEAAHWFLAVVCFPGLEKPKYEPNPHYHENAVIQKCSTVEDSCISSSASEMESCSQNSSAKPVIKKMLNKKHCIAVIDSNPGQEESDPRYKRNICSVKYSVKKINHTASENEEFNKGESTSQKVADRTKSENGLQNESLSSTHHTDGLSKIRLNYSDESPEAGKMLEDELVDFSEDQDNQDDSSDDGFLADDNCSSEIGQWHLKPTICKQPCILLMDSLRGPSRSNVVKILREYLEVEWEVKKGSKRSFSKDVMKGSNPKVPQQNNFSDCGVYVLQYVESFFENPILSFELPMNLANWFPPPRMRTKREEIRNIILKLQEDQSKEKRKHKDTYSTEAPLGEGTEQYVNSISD

[13] = target: DNA dC->dU-editing enzyme APOBEC-3G (Homo sapiens, UniProt Q9HC16); assay: APOBEC3G deaminase inhibitors, SAR follow-up, biochemical, fluorescence, single-stranded DNA substrate (AID 602136); assay type: functional; details: read-out: IC50_Mean
[14] = target: DNA dC->dU-editing enzyme APOBEC-3A (Homo sapiens, UniProt P31941); assay: SAR analysis of small molecule inhibitors of APOBEC3A DNA Deaminase via a fluorescence-based single-stranded DNA deaminase assay.; assay type: functional; details: read-out: IC50_Mean
DNA dC->dU-editing enzyme APOBEC-3A, sequence (P31941 whole entry): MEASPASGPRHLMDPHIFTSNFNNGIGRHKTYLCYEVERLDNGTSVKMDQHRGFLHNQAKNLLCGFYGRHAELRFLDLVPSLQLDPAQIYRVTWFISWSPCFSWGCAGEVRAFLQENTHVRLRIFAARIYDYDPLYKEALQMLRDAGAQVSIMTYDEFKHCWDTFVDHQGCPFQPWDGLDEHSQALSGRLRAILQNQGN

Steroidogenic factor 1, sequence (Q13285 whole entry): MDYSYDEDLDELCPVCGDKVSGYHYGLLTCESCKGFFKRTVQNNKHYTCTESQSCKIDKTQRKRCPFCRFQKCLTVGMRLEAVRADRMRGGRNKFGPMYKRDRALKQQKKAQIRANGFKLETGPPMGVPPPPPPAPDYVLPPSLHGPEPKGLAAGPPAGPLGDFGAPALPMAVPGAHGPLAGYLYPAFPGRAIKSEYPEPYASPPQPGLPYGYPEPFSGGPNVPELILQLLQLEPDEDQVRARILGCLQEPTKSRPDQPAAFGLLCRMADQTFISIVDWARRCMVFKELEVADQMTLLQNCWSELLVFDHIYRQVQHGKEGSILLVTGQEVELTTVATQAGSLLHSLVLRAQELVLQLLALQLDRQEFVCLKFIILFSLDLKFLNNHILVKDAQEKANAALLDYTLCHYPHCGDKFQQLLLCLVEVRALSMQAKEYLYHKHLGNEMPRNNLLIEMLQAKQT
DNA dC->dU-editing enzyme APOBEC-3G, sequence (Q9HC16 whole entry): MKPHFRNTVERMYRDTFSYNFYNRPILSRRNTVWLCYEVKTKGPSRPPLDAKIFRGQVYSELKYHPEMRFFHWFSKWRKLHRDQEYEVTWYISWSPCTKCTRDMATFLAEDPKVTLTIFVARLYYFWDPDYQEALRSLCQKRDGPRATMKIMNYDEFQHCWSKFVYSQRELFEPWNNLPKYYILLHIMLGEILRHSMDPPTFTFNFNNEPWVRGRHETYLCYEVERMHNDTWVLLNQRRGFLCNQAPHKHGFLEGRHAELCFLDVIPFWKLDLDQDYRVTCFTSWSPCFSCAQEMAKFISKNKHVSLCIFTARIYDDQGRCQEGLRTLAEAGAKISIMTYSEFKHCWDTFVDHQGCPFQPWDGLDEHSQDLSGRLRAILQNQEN
Melanocortin receptor 4, sequence (P32245 whole entry): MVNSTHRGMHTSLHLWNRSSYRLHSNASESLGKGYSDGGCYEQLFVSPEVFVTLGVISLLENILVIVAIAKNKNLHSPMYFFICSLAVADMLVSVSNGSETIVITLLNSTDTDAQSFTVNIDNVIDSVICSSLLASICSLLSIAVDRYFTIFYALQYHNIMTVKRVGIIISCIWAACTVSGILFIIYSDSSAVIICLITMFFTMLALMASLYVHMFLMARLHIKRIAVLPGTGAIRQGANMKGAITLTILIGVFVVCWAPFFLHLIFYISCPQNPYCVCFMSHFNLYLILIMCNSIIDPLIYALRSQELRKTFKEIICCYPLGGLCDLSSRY
Nuclear receptor subfamily 5 group A member 2, sequence (O00482 whole entry): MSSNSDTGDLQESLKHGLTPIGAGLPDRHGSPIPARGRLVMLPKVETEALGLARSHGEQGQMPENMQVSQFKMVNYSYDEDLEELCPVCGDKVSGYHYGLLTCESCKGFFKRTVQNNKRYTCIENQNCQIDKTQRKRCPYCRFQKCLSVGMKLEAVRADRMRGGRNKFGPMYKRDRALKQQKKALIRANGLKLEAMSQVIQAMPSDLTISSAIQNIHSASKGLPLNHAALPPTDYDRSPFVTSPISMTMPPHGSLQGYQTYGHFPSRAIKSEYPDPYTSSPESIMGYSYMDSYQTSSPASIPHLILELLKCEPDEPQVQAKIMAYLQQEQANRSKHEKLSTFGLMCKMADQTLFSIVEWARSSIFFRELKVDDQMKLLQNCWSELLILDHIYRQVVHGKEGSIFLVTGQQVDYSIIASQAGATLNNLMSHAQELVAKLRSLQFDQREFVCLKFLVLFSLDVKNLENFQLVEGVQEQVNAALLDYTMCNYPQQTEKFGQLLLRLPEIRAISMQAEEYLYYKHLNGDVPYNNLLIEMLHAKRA

SMILES: CCOC(=O)c1cc2sccc2n1CC(=O)Nc1ccc2c(c1)OCCO2
IC50 (Steroidogenic factor 1): 15.7 µM (inactive)
IC50 [1]: 35.9 µM (inactive)
IC50 [2]: 35.9 µM (inactive)

SMILES: NC(=O)[C@H]1CC2(CC(c3cccc(NC(=O)COc4ccc(Cl)cc4)c3)=NO2)CN1C(=O)CC(c1ccccc1)c1ccccc1 (stereo partly specified)
IC50 [5]: 37.7 µM (active)
IC50 [6]: 12.7 µM (active)

SMILES: Cc1ccc(NC(=S)NC(=O)c2ccc(-c3ccc(Cl)cc3)o2)c(O)c1
EC50 [9]: 7.63 µM (active)
EC50 (Streptococcus): 9.04 µM (active)
EC50 (Melanocortin receptor 4): > 89.2 µM (inactive)

SMILES: CCc1cc(O)nc(SCC(=O)Nc2ccc3c(c2)OCCO3)n1
IC50 (Steroidogenic factor 1): 12 µM (inactive)
IC50 [1]: 35.9 µM (inactive)
IC50 [2]: 35.9 µM (inactive)

SMILES: COc1cc(-c2cc(NC=O)c3ncc(-c4cccc(C(F)(F)F)c4)n3c2)cc(OC)c1OC
EC50 (Melanocortin receptor 4): > 89.2 µM (inactive)
IC50 (H9c2): 51.3 µM (inactive)

SMILES: N#Cc1c(NC(=O)c2cnn3cc(Br)cnc23)sc2c1CCC2
IC50 [10]: > 99 µM (inactive)
IC50 (Caspase-3): > 99 µM (inactive)
IC50 [11]: > 99 µM (inactive)
IC50 [12]: > 99 µM (inactive)

SMILES: O=C(O)c1ccc(Cl)c2c1C1C=CCC1C(c1ccccc1F)N2 (stereo unspecified)
IC50 [13]: > 99 µM (inactive)
IC50 [14]: 27.4 µM (inactive)

SMILES: CCOc1ccccc1N1C(=O)C(=O)N(CC(=O)c2ccc[nH]2)C1=O
IC50 [13]: > 99 µM (inactive)
IC50 [14]: > 99 µM (inactive)

More lines, main results first:

IC50 [3]: 2.4 µM (active)
IC50 [4]: 11.2 µM (active)
SMILES: COc1ccc(CSc2nc3nc(C)cc(C)n3n2)cc1F

IC50 [3]: 0.778 µM (active)
IC50 [4]: 0.409 µM (active)
SMILES: COc1ccccc1NS(=O)(=O)c1ccc(C)c(C(=O)NCC(c2ccco2)N2CCCCC2)c1 (stereo unspecified)

IC50 [8]: 22.2 µM (active)
SMILES: COc1cc(/C=C2\SC(Nc3ccccc3OC)=NC2=O)ccc1O
CC50 [7]: 100 µM (active)

IC50 (Caspase-3): 18 µM (active)
IC50 [11]: 5 µM (active)
IC50 [12]: 13 µM (active)
SMILES: Ic1ccccc1-c1nc(/C=C/c2ccccc2)no1
IC50 [10]: 15 µM (active)
